According to patent US10350210B2, “EGFR and ALK dual inhibitor” (PRECEDO PHARMACEUTICALS CO., LTD, priority 2015, dated 2019):
Entries after “also recorded” stand apart in the source; their conditions may differ.

Legend:
[1] = test system: EGFR protein (EGFR delE746_A750, PC-9); assay: Effect on signaling pathway in cells, PC-9; type: cell-based, human; conditions: PC-9 (EGFR delE746_A750), 4 h
Excerpt: In four cell lines (all purchased from ATCC) including non-small cell lung cancer cell line A549 (expressing wild-type EGFR gene), non-small cell lung cancer cell line H1975 (expressing EGFR L858R/T790M double mutant gene), non-small cell lung cancer cell line H3255 (expressing EGFR L858R mutant gene) and non-small cell lung cancer cell line PC-9 (expressing EGFR delE746_A750 mutant gene), the effect of Compound 1 on EGFR or other protein kinases related to signaling pathways of EGFR such as Stat3, AKT, ErK, eIF4E, 4EBP1, P70S6K was assessed by assaying a number of cellular biochemical and functional endpoints. […] The effect of Compound 1 on phosphorylation of Stat3Y705, AKT T308, AKT 5473, Erk T202/204, EGFR Y1068, P70S6K Thr389, eIF4E Ser209, Erk T202/204, 4EBP1 (Thr37/46) in these cell lines was assayed (FIGS. 1a to 1d).

[2] = test system: non-small cell lung cancer cell PC-9 subcutaneous tumors; assay: Mouse tumor model of non-small cell lung cancer cell PC-9; type: in vivo; conditions: PC-9 tumor model; for tumor inhibition rate: Bal b/c mice, after 8 days of administration
Experimental: 24 Bal b/c female mice, 4-6 weeks old, were purchased from Shanghai SLAC Laboratory Animal Co., Ltd., and maintained in an SPF laboratory. Drinking water and bedding were both sterilized by autoclaving. All operations involving the mice were performed under aseptic conditions. At day 0, 5×10^6 non-small cell lung cancer cells PC9 (purchased from ATCC) were injected subcutaneously into the left flank of all mice. At day 15, all mice were divided into four groups (6 mice per group), and the first group of mice were orally administered with methyl cellulose (HKI) solvent, the second group of mice were orally administered with Compound 1 at a dose of 25 mg/kg mouse weight, the third group of mice were orally administered with Compound 1 at a dose of 50 mg/kg mouse weight, and the fourth group of mice were orally administered with Compound 1 at a dose of 100 mg/kg mouse weight daily. Starting from the administration, the length/width of the subcutaneous tumor was measured daily with a vernier caliper, and the weight of the mice was recorded daily to observe the effect of Compound 1 on the body weight of the mice. The mice were sacrificed at day 36 and the subcutaneous tumors were collected. The tumors were weighed, and then the tumor tissues were used to prepare protein lysates for use. The growth trend of the subcutaneous tumor within 16-36 days was plotted, wherein the tumor volume was calculated as length×width×width/2 mm^3.

BaF3-FL-EGFR-T790M-L858R = assay: Cell growth (Cell Titer-Glo viability), BaF3-FL-EGFR-T790M-L858R; type: cell-based; conditions: Mus musculus; BaF3-FL-EGFR-T790M-L858R (EGFR T790M/L858R mutant kinase), 72 hrs
Experimental: By testing the effect of the novel kinase inhibitors on the proliferation of cancer cells, the selectivity of the compounds of the present disclosure in inhibiting the proliferation of cancer cells was further assessed. […]
The number of viable cells was determined quantitatively by a microplate reader using Cell Titer-Glo® (Promega, US) chemiluminescence cell viability assay kit.

## C=CC(=O)Nc1cc(Nc2ncc(Cl)c(Nc3ccccc3S(=O)(=O)C(C)C)n2)c(OC)cc1N1CCN(CC)CC1 [Compound 1, N-(5-(5-chloro-4-(2-(isopropylsulfonyl)phenylamino)pyrimidin-2-ylamino)-2-(4-ethylpiperazin-1-yl)-4-methoxyphenyl)acrylamide]
[1]
  concentration able to significantly inhibit the phosphorylation of EGFR protein (also affects AKT and ERK phosphorylation): 0.3 µM
[2]; oral daily 25 mg/kg
  tumor inhibition rate: 89.8%
[2]; oral daily 50 mg/kg
  tumor inhibition rate: 95.1%
  body weight of the mice: did not decrease
[2]; oral daily 100 mg/kg
  tumor inhibition rate: 98.7%
[2]; oral daily 25 mg/kg, 25 mg/kg
  body weight of the mice: barely affect the body weight; also recorded: did not decrease

## C=CC(=O)Nc1cc(Nc2ncc(Cl)c(Nc3ccccc3S(=O)(=O)C(C)C)n2)c(OC)cc1N1CCCN(C)CC1 [Compound 10, N-(5-(5-chloro-4-(2-(isopropylsulfonyl)phenylamino)pyrimidin-2-ylamino)-4-methoxy-2-(4-methyl-1,4-homopiperazin-1-yl)phenyl)acrylamide]
BaF3-FL-EGFR-T790M-L858R
  GI50: 2 nM
